# Patent US20170326125A1, “MULTISUBSTITUTED AROMATIC COMPOUNDS AS INHIBITORS OF THROMBIN” (VERSEON CORPORATION, priority 2016, published 2017)
# Target: T1, Human thrombin (Homo sapiens, UniProt P00734)
# T1 construct: purchased Haematologic Technologies Inc
# Test: Inhibition of the protease activity of thrombin (chromogenic substrate S-2238)
# Assay type: biochemical
# Conditions: Table C; 3 nM thrombin, 125 μM S-2238, 10 min pre-incubation, RT
# Method: Compounds described herein can be assayed, by a variety of methods known in the art and described herein, for inhibition of biological activity, e.g., protease activity, of a variety of proteins, e.g., thrombin.
# The thrombin activity reported herein (e.g., Table A) was obtained as follows. Human thrombin was obtained from Haematologic Technologies Inc. The chromogenic
# Thrombin was assayed in buffer containing 0.05 M Tris (pH 7.4), 0.015 M NaCl and 0.01% PEG-8000. The final concentration of enzyme used was 3 nM thrombin. […] All assays were performed in 96-well microtiter plates at room temperature (RT). […] Inhibitor IC50 values were determined by adding test compound as ten point, three-fold serial dilutions in buffer solution, as known in the art. The plate was read at 10 minutes after substrate addition. The IC50 was calculated by plotting the percent (%) inhibition against compound concentration and fitting the data to a constrained four parameter sigmoidal curve, as known in the art.
row,IC50 [nM],Compound
1,> 1000,"Nc1nc(-c2cccnc2)n[nH]1 [Cmpd 1, 3-(pyridin-3-yl)-1H-1,2,4-triazol-5-amine]"
2,> 1000,"Nc1n[nH]c(-c2ccccn2)n1 [Cmpd 2, 3-(pyridin-2-yl)-1H-1,2,4-triazol-5-amine]"
3,> 1000,"Nc1n[nH]c(-c2ccncc2)n1 [Cmpd 3, 3-(pyridin-4-yl)-1H-1,2,4-triazol-5-amine]"
4,100 to 1000,"CCC(=O)n1nc(-c2cccnc2)nc1NCc1cccc(F)c1 [Cmpd 8, 1-(5-[(3-fluorophenyl)methyl]amino-3-(pyridin-3-yl)-1H-1,2,4-triazol-1-yl)propan-1-one]"
5,> 1000,"Nc1nc(-c2ccco2)n[nH]1 [Cmpd 25, 3-(furan-2-yl)-1H-1,2,4-triazol-5-amine]"

# Same assay, conditions: inhibition of the protease activity of thrombin; class symbols a/b/c
row,Compound,IC50 [nM]
1,Fc1ccc(CNc2nc(-c3cccnc3)n[nH]2)cc1 [Cmpd 4],> 1000
2,CCC(=O)n1nc(-c2cccnc2)nc1NCc1ccccc1F [Cmpd 9],100 to 1000
3,CCC(=O)n1nc(-c2cccnc2)nc1NCc1ccc(C#N)cc1 [Cmpd 10],> 1000
4,O=C(c1ccccc1)n1nc(-c2ccncc2)nc1NCc1ccc(F)cc1 [Cmpd 14],< 100
5,O=C(c1ccsc1)n1nc(-c2ccncc2)nc1NCc1ccc(F)cc1 [Cmpd 15],< 100
6,COc1ccc(CNc2nc(-c3ccncc3)nn2C(=O)C(C)(C)C)cc1 [Cmpd 16],< 100
7,O=C(N1CCOCC1)n1nc(-c2cccnc2)nc1NCc1ccc(F)cc1 [Cmpd 17],> 1000
8,O=C(Nc1ccccc1F)n1nc(-c2cccnc2)nc1NCc1ccc(F)cc1 [Cmpd 18],> 1000
9,CNC(=O)n1nc(-c2cccnc2)nc1NCc1ccc(F)cc1 [Cmpd 19],> 1000
10,COC(=O)n1nc(-c2cccnc2)nc1NCc1ccc(F)cc1 [Cmpd 20],100 to 1000
11,O=C(Cn1nc(-c2cccnc2)nc1NCc1ccc(F)cc1)c1ccccc1 [Cmpd 21],> 1000
12,CCC(=O)n1nc(-c2cccnc2)nc1NCCc1ccccc1 [Cmpd 22],> 1000
13,CCC(=O)n1nc(-c2cccnc2)nc1NCCN1CCOCC1 [Cmpd 23],> 1000
14,CCC(=O)n1nc(-c2cccnc2)nc1N(C)C [Cmpd 24],> 1000
15,COc1ccccc1C(=O)n1nc(-c2ccco2)nc1NCc1ccc(F)cc1 [Cmpd 26],< 100
16,COc1ccccc1C(=O)n1nc(-c2cccs2)nc1NCc1ccc(F)cc1 [Cmpd 27],100 to 1000
17,COc1ccccc1C(=O)n1nc(-c2ccncn2)nc1NCc1ccccc1 [Cmpd 33],< 100
18,COc1ccccc1C(=O)n1nc(-c2cncnc2)nc1NCc1ccccc1 [Cmpd 34],< 100

row,Compound,IC50 [nM]
1,COc1ccccc1C(=O)n1nc(-c2ncccn2)nc1NCc1ccccc1 [Cmpd 35],< 100
2,Cc1c(-c2ccccc2)nn(C(=O)C(C)(C)C)c1NCc1ccc(F)cc1 [Cmpd 38],> 1000
3,O=C(c1ccccc1Cl)n1nc(-c2ccccn2)cc1NCc1ccc(F)cc1 [Cmpd 41],100 to 1000
4,Nc1cc(-c2ccccn2)nn1-c1ccccc1Cl [Cmpd 42],> 1000
5,O=C(Nc1cc(-c2ccccn2)nn1-c1ccccc1Cl)c1ccc(F)cc1 [Cmpd 43],> 1000
6,Fc1ccc(CN(Cc2ccc(F)cc2)c2cc(-c3ccccn3)nn2-c2ccccc2Cl)cc1 [Cmpd 44],> 1000
7,Fc1ccc(CNc2cc(-c3ccccn3)nn2-c2ccccc2Cl)cc1 [Cmpd 45],> 1000
8,CCOC(=O)c1cn(-c2ccccn2)nc1NCc1ccc(F)cc1 [Cmpd 46],> 1000
9,O=C(O)c1cn(-c2ccccn2)nc1NCc1ccc(F)cc1 [Cmpd 47],> 1000
10,CON(C)C(=O)c1cn(-c2ccccn2)nc1NCc1ccc(F)cc1 [Cmpd 48],> 1000
11,CN(C)C(=O)c1cn(-c2ccccn2)nc1NCc1ccc(F)cc1 [Cmpd 49],> 1000
12,CCC(=O)c1cn(-c2ccccn2)nc1NCc1ccc(F)cc1 [Cmpd 50],> 1000
13,CCOC(=O)c1cc(-c2ccccn2)nn1CCc1ccc(F)cc1 [Cmpd 51],> 1000
14,O=C(O)c1cc(-c2ccccn2)nn1CCc1ccc(F)cc1 [Cmpd 52],> 1000
15,CON(C)C(=O)c1cc(-c2ccccn2)nn1CCc1ccc(F)cc1 [Cmpd 53],> 1000
16,O=C(c1cc(-c2ccccn2)nn1CCc1ccc(F)cc1)N1CCCCC1 [Cmpd 54],> 1000
17,CCC(O)c1cc(-c2ccccn2)nn1CCc1ccc(F)cc1 (stereo not drawn) [Cmpd 55],> 1000

# Second part, the molecule after the results:
row,IC50 [nM],Compound
1,> 1000,CCOC(=O)c1cc(-c2ccccn2)n(CCc2ccc(F)cc2)n1 [Cmpd 57]
2,> 1000,O=C(O)c1cc(-c2ccccn2)n(CCc2ccc(F)cc2)n1 [Cmpd 58]
3,> 1000,O=C(c1cc(-c2ccccn2)n(CCc2ccc(F)cc2)n1)N1CCCCC1 [Cmpd 59]
4,> 1000,"CC(=O)c1cn(-c2ccccn2)nc1NCc1ccc(F)cc1 [Cmpd 60, 1-(3-[(4-fluorophenyl)methyl]amino-1-(pyridin-2-yl)-1H-pyrazol-4-yl)ethan-1-one]"
5,> 1000,"CC(=O)c1cn(-c2ccccc2)nc1NCc1ccc(F)cc1 [Cmpd 61, 1-(3-[(4-fluorophenyl)methyl]amino-1-phenyl-1H-pyrazol-4-yl)ethan-1-one]"
6,> 1000,"CCC(=O)c1cn(-c2ccccc2)nc1NCc1ccc(F)cc1 [Cmpd 62, 1-(3-[(4-fluorophenyl)methyl]amino-1-phenyl-1H-pyrazol-4-yl)propan-1-one]"
7,< 100,"CCC(=O)n1nc(-c2ccco2)nc1NCc1ccc(F)cc1 [Cmpd 63, 1-(5-[(4-fluorophenyl)methyl]amino-3-(furan-2-yl)-1H-1,2,4-triazol-1-yl)propan-1-one]"
8,< 100,"O=C(Cc1ccccc1)n1nc(-c2ccccn2)nc1NCc1ccc(F)cc1 [Cmpd 66, 1-(5-[(4-fluorophenyl)methyl]amino-3-(pyridin-2-yl)-1H-1,2,4-triazol-1-yl)-2-phenylethan-1-one]"
9,< 100,"CC(C)CC(=O)n1nc(-c2ccccn2)nc1NCc1ccc(F)cc1 [Cmpd 67, 1-(5-[(4-fluorophenyl)methyl]amino-3-(pyridin-2-yl)-1H-1,2,4-triazol-1-yl)-3-methylbutan-1-one]"
10,< 100,"O=C(CCc1ccccc1)n1nc(-c2ccccn2)nc1NCc1ccc(F)cc1 [Cmpd 68, 1-(5-[(4-fluorophenyl)methyl]amino-3-(pyridin-2-yl)-1H-1,2,4-triazol-1-yl)-3-phenylpropan-1-one]"
11,< 100,"CCCC(=O)n1nc(-c2ccccn2)nc1NCc1ccc(F)cc1 [Cmpd 69, 1-(5-[(4-fluorophenyl)methyl]amino-3-(pyridin-2-yl)-1H-1,2,4-triazol-1-yl)butan-1-one]"
12,< 100,"CC(C)(C)C(=O)n1nc(-c2cccnc2)nc1NCc1ccc(F)cc1 [Cmpd 71, 1-(5-[(4-fluorophenyl)methyl]amino-3-(pyridin-3-yl)-1H-1,2,4-triazol-1-yl)-2,2-dimethylpropan-1-one]"
13,> 1000,"CC(C)(C)C(=O)Cn1nc(-c2cccnc2)nc1NCc1ccc(F)cc1 [Cmpd 72, 1-(5-[(4-fluorophenyl)methyl]amino-3-(pyridin-3-yl)-1H-1,2,4-triazol-1-yl)-3,3-dimethylbutan-2-one]"
14,> 1000,"CC(=O)Cn1nc(-c2cccnc2)nc1NCc1ccc(F)cc1 [Cmpd 73, 1-(5-[(4-fluorophenyl)methyl]amino-3-(pyridin-3-yl)-1H-1,2,4-triazol-1-yl)propan-2-one]"
15,> 1000,"CCC(=O)n1nc(-c2cccnc2)cc1NCc1ccc(F)cc1 [Cmpd 74, 1-(5-[(4-fluorophenyl)methyl]amino-3-(pyridin-3-yl)-1H-pyrazol-1-yl)propan-1-one]"
16,< 100,"CC(C)(C)C(=O)n1nc(-c2ccncc2)nc1NCc1ccc(F)cc1 [Cmpd 75, 1-(5-[(4-fluorophenyl)methyl]amino-3-(pyridin-4-yl)-1H-1,2,4-triazol-1-yl)-2,2-dimethylpropan-1-one]"
17,< 100,"CC(C)C(=O)n1nc(-c2ccncc2)nc1NCc1ccc(F)cc1 [Cmpd 76, 1-(5-[(4-fluorophenyl)methyl]amino-3-(pyridin-4-yl)-1H-1,2,4-triazol-1-yl)-2-methylpropan-1-one]"
18,< 100,"O=C(Cc1ccccc1)n1nc(-c2ccncc2)nc1NCc1ccc(F)cc1 [Cmpd 77, 1-(5-[(4-fluorophenyl)methyl]amino-3-(pyridin-4-yl)-1H-1,2,4-triazol-1-yl)-2-phenylethan-1-one]"
19,< 100,"CC(C)CC(=O)n1nc(-c2ccncc2)nc1NCc1ccc(F)cc1 [Cmpd 78, 1-(5-[(4-fluorophenyl)methyl]amino-3-(pyridin-4-yl)-1H-1,2,4-triazol-1-yl)-3-methylbutan-1-one]"
20,< 100,"O=C(CCc1ccccc1)n1nc(-c2ccncc2)nc1NCc1ccc(F)cc1 [Cmpd 79, 1-(5-[(4-fluorophenyl)methyl]amino-3-(pyridin-4-yl)-1H-1,2,4-triazol-1-yl)-3-phenylpropan-1-one]"
21,< 100,"CCCC(=O)n1nc(-c2ccncc2)nc1NCc1ccc(F)cc1 [Cmpd 80, 1-(5-[(4-fluorophenyl)methyl]amino-3-(pyridin-4-yl)-1H-1,2,4-triazol-1-yl)butan-1-one]"
22,< 100,"CCC(=O)n1nc(-c2ccncc2)nc1NCc1ccc(F)cc1 [Cmpd 81, 1-(5-[(4-fluorophenyl)methyl]amino-3-(pyridin-4-yl)-1H-1,2,4-triazol-1-yl)propan-1-one]"
23,< 100,"CC(C)(C)C(=O)n1nc(-c2cccs2)nc1NCc1ccc(F)cc1 [Cmpd 82, 1-(5-[(4-fluorophenyl)methyl]amino-3-(thiophen-2-yl)-1H-1,2,4-triazol-1-yl)-2,2-dimethylpropan-1-one]"
